Measurements from patent publication US20030220521A1, “Renal-selective prodrugs for control of renal sympathetic nerve activity in the treatment of hypertension” (G.D. Searle & Co., priority 1989, published 2003).

Key:
[1] = Assay IV: metabolism of conjugate to fusaric acid in rat kidney homogenate; format: in vitro ADME
Procedure: A freshly excised rat kidney was homogenized in 10 ml cold buffer (100 mM Tris, 15 mM glycylglycine, pH 7.4) with a Polytron Tissue Homogenizer (Brinkmann). The resulting suspension, diluted with buffer, was incubated in the presence of the Ex. #859 conjugate at 37° C. At various times aliquots were removed, deproteinized with an equal volume of cold trichloroacetic acid (25%) and centrifuged. The supernatant was injected onto a C-18 reverse-phase HPLC column and eluted isocratically with a mixture of acetonitrile and water (20:80 v/v) containing trifluoroacetic acid (0.05%). Eluted compounds were monitored by absorbance at 254 nm and compared to standards run under identical conditions. In the assay using pure kidney enzyme homogenate, the Ex. #859 conjugate was also incubated under the same conditions as described except that 5 mg of gamma-glutamyl transpeptidase (Sigma, 23 units/mg) and 10 mg of acylase I (Sigma, 4800 units/mg) were added in place of the homogenate. Analysis by HPLC was performed in a manner identical to that used for the kidney homogenate experiment.

[2] = tested on: spontaneously hypertensive rats; assay: Assay VI: acute in vivo effects on mean arterial pressure and renal blood flow in anesthetized SHR (i.v. or i.d.); parameters: species or system rat; settings: for MAP / RBF / acute effect on mean arterial pressure / acute effect on renal blood flow: 50 mg/kg i.v.
Procedure: Spontaneously hypertensive rats were anesthetized with inactin (100 mg/kg, i.p.) and catheters were implanted into a carotid artery for measurement of mean arterial pressure (Gould model 3800 chart recorder; Statham pressure transducer model no. P23DB) and into a jugular vein for compound administrations (i.v. or i.d.). In addition, a flow probe was implanted around the left renal artery for measurement of renal blood flow using pulsed Doppler flowmetry. Rats were allowed 60 min to stabilize before 10 minutes of control recordings of mean arterial pressure and renal blood flow were obtained. Control measurements were followed by intravenous injection of 50 mg/kg of fusaric acid or the Ex. #859 conjugate. […] The Ex. #859 conjugate had no effect on mean arterial pressure at a dose of 100 mg/kg (n=4) during a 60 minute observation period. Renal blood flow (n=4) was unchanged 15 minutes after injection of the Ex. #859 conjugate but increased from 1.1 KHz (control period) to 3.5 KHz at 30 minutes postinjection.

[3] = tested on: Spontaneously Hypertensive Rats (SHR); assay: Assay VII: acute effects on arterial pressure in anesthetized SHR; format: in vivo, rat; settings: for Mean arterial pressure: i.v.: fusaric acid and fusaric acid hydrazide 100 mg/kg, Ex. #859 250 mg/kg
Procedure: Mean arterial pressure effects of fusaric acid hydrazide (100 mg/kg, i.v.), fusaric acid (100 mg/kg, i.v.) and Ex. #859 conjugate (250 mg/kg, i.v.) are shown in Table XXVII during a vehicle control period and 60 min post-injection of compound in anesthetized SHR. Rats were prepared as described above, minus the renal artery flow probe.

rats, heart and kidneys = assay: Assay X: catecholamine analysis of heart and kidney tissue after 5 days of infusion; format: in vivo, rat
Procedure: Following 5 days of infusion, the kidney was exposed through a small flank incision, made in the anesthetized rat, and the renal artery and vein were ligated. Following this the kidney was rapidly excised distal to the ligation and frozen in liquid nitrogen. Similarly, the heart was excised and frozen subsequent to the removal of both kidneys. The frozen tissues were stored in closed containers at −80° C. Tissue samples were thawed on ice and their weight recorded prior to being placed in a flat bottom tube. The cold extraction solvent (2 ml/g tissue) was then added and the sample was homogenized with a Polytron. Extraction Solvent: 0.1 M perchloric acid (3 ml of 70% PCA to 500 ml); 0.4 mM Na metabisulphite (38 mg/500 ml). The volume was then measured and 0.05 ml of a 1 uM/L solution of dihydroxybenzylamine (DHBA) in extraction solvent was added for every 0.95 ml of homogenate to yield a 50 nM/L internal standard concentration. The homogenate was then mixed and centrifuged at 4° C., 3000 rpm for 35 minutes. A 2 ml aliquot of the supernatant was then neutralized by adding 0.5 ml of 2 M Tris, pH 8.8 and mixing. The sample was then placed on an alumina column (40 mg, Spe-ed CAT cartridge; Applied Separations; Bethlehem, Pa.) and the catecholamines were bound, washed and eluted using a vacuum manifold system (Adsorbex SPU, EM Science, Cherry Hill, N.J.) operating at ca. 4 ml/min. until the column was dry. Washes of 1 ml H20—0.5 ml MeOH—1 ml H20 were followed by elution with 1 ml of extraction solvent. A 200 μl sample of the eluant was injected onto a C-18 reversed phase analytical HPLC column, 5 um, 4.6 mm×250 mm (e.g., Beckman #235335, LKB 2134-630 Spherisorb ODS-2) and eluted with a recycled mobile phase run at ambient temperature and a flow rate of 0.5 ml/min (ca. 75 bar). Mobile Phase: 0.02 M Na2HP04 in 75/25(v/v) H20/MeOH 0.007% SDS pH 3.5 (conc. H3P04). The separated catecholamines were detected with a LKB 2143 electrochemical detector at a potential setting of 500 mV using a teflon flow cell spacer of 2.2 μl and a time constant of 2 sec. Peak heights were measured and recorded along with the chromatogram tracing using a Spectra-Physics 4270 integrator. […] The resulting factor (calculated for each sample) was used to correct for losses due to dilution, non-specific binding to the tissue precipitate, incomplete elution, etc. Concentrations were calculated by multiplying the peak heights for Epi, NE and DA by that samples correction factor and then dividing this value by the peak height of the respective standard. […] This value is multiplied by the volume of the homogenate (determined previously) to get the total catecholamine content of the tissue expressed in moles/g tissue. […]

[4] = anesthetized SHR, 60 minute observation

Structure (SMILES) | MAP ([2]; 15 min) [mm Hg] | RBF ([2]; 15 min) [KHz] | MAP ([2]; 30 min) [mm Hg] | RBF ([2]; 30 min) [KHz] | MAP ([2]; 45 min) [mm Hg] | RBF ([2]; 45 min) [KHz] | MAP ([2]; 60 min) [mm Hg] | RBF ([2]; 60 min) [KHz] | MAP ([2]; time zero (control)) [mm Hg] | RBF ([2]; time zero (control)) [KHz] | acute effect on mean arterial pressure [2, 4] | acute effect on renal blood flow [2, 4] | Mean arterial pressure ([3]; 60 MIN post-injection) [mmHg] | Mean arterial pressure ([3]; ZERO (vehicle control period)) [mmHg] | heart norepinephrine concentration relative to vehicle (rats, heart and kidneys) | kidney norepinephrine concentration relative to vehicle (rats, heart and kidneys) | further results
CCCCc1ccc(C(=O)NNC(=O)CCC(NC(C)=O)C(=O)O)nc1 [Ex. #859, N-acetyl-L-glutamic acid, 5-[(5-butyl-2-pyridinyl)-carbonyl]hydrazide] | 163 | 3.8 | 164 | 4.0 | 157 | 4.6 | 159 | 4.8 | 156 | 2.4 | no acute effects | increased renal blood flow to a greater degree than fusaric acid | 146 ± 15 | 151 ± 9 | only fusaric acid decreased heart norepinephrine concentration | decreased kidney norepinephrine concentration | amount of fusaric acid liberated on incubation ([1]; kidney homogenate, 37° C): linear increase; other metabolites observed (fusaric acid hydrazide, gamma-glutamyl fusaric acid hydrazide) ([1]; kidney homogenate, 37° C): No fusaric acid hydrazide or gamma-glutamyl fusaric acid hydrazide was observed; Renal blood flow change ([2]; anesthetized SHR, i.d. 100 mg/kg, 15 minutes after injection): unchanged; Renal Blood Flow ([2]; anesthetized SHR, i.d. 100 mg/kg, 30 minutes postinjection): 3.5 KHz; effect on mean arterial pressure ([2]; anesthetized SHR, i.d. 100 mg/kg, 60 minute observation): no effect; Renal Blood Flow ([2]; anesthetized SHR, i.d. 100 mg/kg, control period): 1.1 KHz; Renal blood flow course ([2]; anesthetized SHR, i.d. 100 mg/kg, following 30 minute observation period (30-60 min)): remained at this level; hypotensive effect / effect on mean arterial pressure ([3]; i.v., 60 min post-injection): no effect
CCCCc1ccc(C(=O)O)nc1 [Fusaric Acid, 5-n-butylpicolinic acid] | 111 | 3.1 | 106 | 3.2 | 103 | 3.4 | 99 | 3.9 | 155 | 2.5 | decreased mean arterial pressure | increased renal blood flow | 110 ± 21 | 164 ± 10 | decreased heart norepinephrine concentration | decreased kidney norepinephrine concentration | stability of liberated fusaric acid ([1]; kidney homogenate incubation conditions): remains stable
